Values quoted from earlier work as cited in PMC8463260 (Acta Pharmaceutica Sinica. B, 2020).

Tests used:
[1] = in vitro bioactivity compared to native insulin; ref [26],[28]-[31]
[2] = multimerization and serum albumin association; ref [5],[6]

For insulin degludec, the “in vitro potency, fold lower vs native insulin” value [1] is given as 6–8 fold.

For “insulin detemir: long-acting insulin derivative with hydrophobic modification on B29 lysine”, the in vivo half-life [2] is given as 20 to 48 h.
